Measured values as given in US10188650B2, “Treatment of neurological disorders” (THE REGENTS OF THE UNIVERSITY OF MICHIGAN, priority 2014, dated 2019).
“Also recorded” adds a separate entry of the source.

Tests used:
[1] = target: P-glycoprotein (Homo sapiens, UniProt P08183); details: cited from earlier work
[2] = pediatric patient studies; cited from earlier work
[3] = target: T1, Drosophila Abl (Drosophila melanogaster, UniProt P00522); test: Abl activity in Schneider 2 cells expressing Drosophila Abl, western blot with anti-phospho-Y412-Abl antibody; type: cell-based; details: nilotinib 5 μM, 6 hours, S2 cells expressing Drosophila Abl
T1 construct: the full-length cDNA of Drosophila Abl was obtained by ligating two fragments; Myc; expressed in transfected cells; host or cells: Drosophila Schneider 2 (S2) cells
T1 sequence (P00522 whole entry, the tested form may be a part): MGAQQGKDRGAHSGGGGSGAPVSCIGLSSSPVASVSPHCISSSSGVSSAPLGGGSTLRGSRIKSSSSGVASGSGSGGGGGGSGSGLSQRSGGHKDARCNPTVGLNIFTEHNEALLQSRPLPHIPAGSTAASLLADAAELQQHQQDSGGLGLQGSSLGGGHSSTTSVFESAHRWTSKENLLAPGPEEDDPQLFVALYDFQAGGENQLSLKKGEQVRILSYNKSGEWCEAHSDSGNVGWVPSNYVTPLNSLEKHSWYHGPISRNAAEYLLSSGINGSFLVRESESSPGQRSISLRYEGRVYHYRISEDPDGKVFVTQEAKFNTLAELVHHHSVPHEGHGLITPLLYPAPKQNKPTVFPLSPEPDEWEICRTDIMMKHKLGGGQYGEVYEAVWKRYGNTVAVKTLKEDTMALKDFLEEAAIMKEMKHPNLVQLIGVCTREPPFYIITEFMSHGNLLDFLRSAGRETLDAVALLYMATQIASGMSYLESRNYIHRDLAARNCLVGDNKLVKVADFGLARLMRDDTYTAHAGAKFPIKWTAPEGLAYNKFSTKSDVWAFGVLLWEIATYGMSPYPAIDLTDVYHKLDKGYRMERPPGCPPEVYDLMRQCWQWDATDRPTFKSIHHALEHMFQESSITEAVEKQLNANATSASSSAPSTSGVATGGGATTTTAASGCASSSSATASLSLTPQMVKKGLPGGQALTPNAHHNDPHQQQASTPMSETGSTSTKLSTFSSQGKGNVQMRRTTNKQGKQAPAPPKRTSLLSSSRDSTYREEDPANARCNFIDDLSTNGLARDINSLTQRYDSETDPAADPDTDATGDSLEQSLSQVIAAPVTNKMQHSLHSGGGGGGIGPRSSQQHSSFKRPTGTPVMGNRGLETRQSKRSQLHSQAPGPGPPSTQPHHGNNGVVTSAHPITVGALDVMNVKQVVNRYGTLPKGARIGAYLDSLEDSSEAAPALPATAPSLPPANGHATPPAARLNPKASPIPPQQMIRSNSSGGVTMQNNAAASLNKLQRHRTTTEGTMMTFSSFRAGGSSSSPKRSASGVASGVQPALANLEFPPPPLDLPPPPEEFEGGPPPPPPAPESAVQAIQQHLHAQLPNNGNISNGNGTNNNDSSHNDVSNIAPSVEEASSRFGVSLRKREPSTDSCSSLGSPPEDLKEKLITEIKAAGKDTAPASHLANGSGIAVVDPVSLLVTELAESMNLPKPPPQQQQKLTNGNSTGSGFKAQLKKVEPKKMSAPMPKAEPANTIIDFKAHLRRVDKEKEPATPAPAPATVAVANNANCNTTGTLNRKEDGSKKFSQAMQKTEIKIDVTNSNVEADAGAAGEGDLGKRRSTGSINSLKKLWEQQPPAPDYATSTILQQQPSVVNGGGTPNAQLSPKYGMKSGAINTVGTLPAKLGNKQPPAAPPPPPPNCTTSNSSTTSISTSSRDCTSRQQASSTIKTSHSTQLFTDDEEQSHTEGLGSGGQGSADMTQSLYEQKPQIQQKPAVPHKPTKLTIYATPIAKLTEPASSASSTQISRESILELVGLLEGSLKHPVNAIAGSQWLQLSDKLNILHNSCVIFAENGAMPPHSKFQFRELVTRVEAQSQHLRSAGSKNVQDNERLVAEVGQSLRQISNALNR
Method: Abl activity was assessed by western blotting analysis with an anti-phospho-Y412-Abl antibody.
Drosophila Schneider 2 cells were maintained in Drosophila Schneider's medium (Life Technologies) supplemented with 10% fetal bovine serum (Sigma-Aldrich, St. Louis, Mo.) in a humidified atmosphere at 26° C. Cells grown on tissue culture plates were transfected with Lipofectamine 2000 (Life Technologies) according to manufacturer's recommendation. Cells were harvested two days after transfection, lysed in SDS sample buffer, and subjected to western blot analysis. In some experiments, cells were transfected with indicated DNA constructs together with tubulin-Gal4 (Lee and Luo, 2001) by using Lipofectamine 2000 (Invitrogen) according to manufacturer's protocol.
Western blot analysis was performed as follows.
(§1) Sample preparation, imaging, and quantification were then completed as described above.
During the development of embodiments of the technology provided herein, experiments were performed to assess the effects of Abl kinase inhibitors on Dscam-induced axonal overgrowth. […] Abl activity was assessed by western blotting analysis with an anti-phospho-Y412-Abl antibody.

[4] = test system: C4da neurons overexpressing Dscam; test: Axon terminal overgrowth induced by Dscam overexpression in single C4da neurons (MARCM), larvae fed drug; type: in vivo, Drosophila; details: larvae reared in food containing 380 μM nilotinib (figure legend: 0.4 mM), 4 days
From the text: The genetic technique MARCM was used to express the Dscam transgene in single C4da neurons and to label the morphology of the axon terminals.
The MARCM technique was used to generate and label C4da neurons homozygous for abl^1 or abl^4 mutations and C4da neurons overexpressing Dscam[TM2]:GFP.
Antibodies used include chicken anti-GFP (Ayes) and rabbit anti-RFP (Rockland). Samples were dehydrated and mounted with DPX mounting media (Electron Microscopy Sciences). Confocal imaging was completed with a Leica SP5 confocal system equipped with a resonant scanner and 63× oil-immersion lens (NA=1.40).
as §1
In particular, the genetic mosaic analysis MARCM was used to express the Dscam transgene in single C4da neurons and to label the morphology of the axon terminals. […] Expression of Dscam transgene was achieved by the C4da-specific driver ppk-Gal4 and UAS-Dscam::GFP transgenes. […] Dscam expression levels (GFP intensity) were measured from the C4da neuron cell body.

[5] = test system: dFMRP mutant C4da neurons; test: Axon terminal overgrowth in dFMRP mutants (Fragile X Syndrome model), larvae fed drug; type: in vivo, Drosophila; details: larvae raised with nilotinib 4 days; vehicle-fed mutants 130%
From the text: The MARCM technique was used to generate and visualize single axon terminals of mutant C4da neurons. […] FIG. 10c summarizes the data from FIG. 6, FIG. 10A and FIG. 10B relating to quantification of the axon terminal length of the indicated genotype and drug treatment. […] Scale bar is 10 μm. Two-way Student's t-test was used for statistical analysis. *: p<0.05; **: p<0.01; ***: p<0.001; ****; p<0.0001.
The MARCM technique was used to generate and label C4da neurons homozygous for abl^1 or abl^4 mutations and C4da neurons overexpressing Dscam[TM2]:GFP. MARCM clones were induced as previously described in Ye et al. (2011) Journal of Neuroscience 31: 3309-3319. Confocal images were collected and analyzed as described in Kim et al. (2013) Neuron 78: 827-838. The MARCM technique was used to visualize single neurons homozygous for abl^1, abl^4, or dFMRP^Δ50 and overexpressing Dscam[3.36.25.2]:GFP as previously described (Kim, et al., 2013).
as §1
Fragile X Syndrome (FXS) is caused by an absence of Fragile X mental retardation protein (FMRP) (Kremer, et al. (1991) Science 252: 1711-14), and is modeled in Drosophila using loss-of-function mutants for the Drosophila homolog of […], dFMRP (Zhang, et al. (2001) Cell 107:591-603; Dockendorff, et al. (2002) Neuron 34: 973-84).

[6] = Human pharmacokinetics; type: in vivo; details: estimated
[7] = human, oral capsule; cited from earlier work
[8] = target: T2, OCT1 (Homo sapiens, UniProt O15245); details: entry into cell cytoplasm; cited from earlier work
T2 sequence (O15245 1-554): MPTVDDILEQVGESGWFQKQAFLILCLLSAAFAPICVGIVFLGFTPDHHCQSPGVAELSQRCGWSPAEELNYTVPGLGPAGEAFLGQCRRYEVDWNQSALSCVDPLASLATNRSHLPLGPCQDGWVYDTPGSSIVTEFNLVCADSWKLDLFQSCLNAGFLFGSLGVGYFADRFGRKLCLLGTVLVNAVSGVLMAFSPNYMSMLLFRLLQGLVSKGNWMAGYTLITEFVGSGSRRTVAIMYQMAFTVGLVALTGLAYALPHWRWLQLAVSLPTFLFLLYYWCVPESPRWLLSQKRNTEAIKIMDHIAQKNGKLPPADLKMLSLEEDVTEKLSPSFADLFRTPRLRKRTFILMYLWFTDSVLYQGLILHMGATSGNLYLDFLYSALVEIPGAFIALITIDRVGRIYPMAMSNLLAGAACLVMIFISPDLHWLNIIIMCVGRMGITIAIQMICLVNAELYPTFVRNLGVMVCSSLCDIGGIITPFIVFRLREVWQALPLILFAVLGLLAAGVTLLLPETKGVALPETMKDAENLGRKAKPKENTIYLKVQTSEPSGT

Chain of P-glycoprotein (P08183 whole entry): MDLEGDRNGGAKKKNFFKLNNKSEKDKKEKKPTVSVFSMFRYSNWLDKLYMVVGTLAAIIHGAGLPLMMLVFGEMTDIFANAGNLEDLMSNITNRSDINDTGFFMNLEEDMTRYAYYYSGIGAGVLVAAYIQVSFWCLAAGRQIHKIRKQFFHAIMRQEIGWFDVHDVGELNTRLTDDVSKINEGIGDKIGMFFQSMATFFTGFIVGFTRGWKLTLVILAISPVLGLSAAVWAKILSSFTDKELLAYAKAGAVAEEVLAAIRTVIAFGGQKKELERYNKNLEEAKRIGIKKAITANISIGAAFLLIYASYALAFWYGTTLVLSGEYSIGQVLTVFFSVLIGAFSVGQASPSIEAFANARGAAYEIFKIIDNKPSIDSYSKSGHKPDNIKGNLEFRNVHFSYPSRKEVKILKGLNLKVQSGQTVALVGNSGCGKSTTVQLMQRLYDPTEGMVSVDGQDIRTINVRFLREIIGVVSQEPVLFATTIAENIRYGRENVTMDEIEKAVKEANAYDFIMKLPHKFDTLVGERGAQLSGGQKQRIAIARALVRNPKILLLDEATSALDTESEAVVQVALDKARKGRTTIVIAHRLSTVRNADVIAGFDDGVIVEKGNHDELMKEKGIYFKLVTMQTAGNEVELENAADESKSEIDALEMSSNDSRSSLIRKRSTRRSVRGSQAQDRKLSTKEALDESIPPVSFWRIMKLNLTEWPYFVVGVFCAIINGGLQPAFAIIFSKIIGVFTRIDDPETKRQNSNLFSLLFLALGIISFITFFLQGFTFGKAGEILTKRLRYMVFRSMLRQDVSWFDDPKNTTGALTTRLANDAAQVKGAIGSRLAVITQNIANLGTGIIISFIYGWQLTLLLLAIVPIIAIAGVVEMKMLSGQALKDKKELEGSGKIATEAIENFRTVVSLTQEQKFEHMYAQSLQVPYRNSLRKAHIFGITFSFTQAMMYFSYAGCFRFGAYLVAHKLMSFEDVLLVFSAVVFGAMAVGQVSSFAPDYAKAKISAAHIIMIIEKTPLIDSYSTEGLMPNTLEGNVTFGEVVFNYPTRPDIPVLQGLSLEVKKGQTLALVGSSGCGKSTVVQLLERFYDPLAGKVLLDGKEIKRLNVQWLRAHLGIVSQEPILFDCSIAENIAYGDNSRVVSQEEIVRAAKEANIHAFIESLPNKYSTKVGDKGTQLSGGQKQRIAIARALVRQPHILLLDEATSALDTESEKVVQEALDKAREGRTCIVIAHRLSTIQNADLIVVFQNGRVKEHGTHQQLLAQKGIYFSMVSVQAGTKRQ

| Structure (SMILES) | substrate for the efflux transporter P-glycoprotein pump [1] | tolerance in children [2] | Abl activity (phospho-Y412-Abl) [3] | Dscam-induced axon terminal overgrowth [4] | axon terminal length in dFMRP mutants [5] | concentration in a human [6] | bioavailability [7] | influx dependent on OCT1 [8] |
| --- | --- | --- | --- | --- | --- | --- | --- | --- |
| Cc1nc(Nc2ncc(C(=O)Nc3c(C)cccc3Cl)s2)cc(N2CCN(CCO)CC2)n1 [Dasatinib] | not a substrate | good tolerance |  |  |  |  |  |  |
| Cc1ccc(NC(=O)c2ccc(CN3CCN(C)CC3)cc2)cc1Nc1nccc(-c2cccnc2)n1 [imatinib] | substrate |  |  |  |  |  |  |  |
| Cc1cn(-c2cc(NC(=O)c3ccc(C)c(Nc4nccc(-c5cccnc5)n4)c3)cc(C(F)(F)F)c2)cn1 [nilotinib, 4-methyl-N-[3-(4-methyl-1-H-imidazol-1-yl)-5-(trifluoromethyl)phenyl]-3-[(4-pyridin-3-ylpyrimidin-2-yl)amino]benzamide] | not a substrate |  | completely suppressed | nearly completely suppressed; also recorded: suppresses axon terminal overgrowth | 103 % of control | approximately 1.3 μmol/liter | approximately 30% | is not |
